What was measured:
Format in all cases: cell-based, mouse
PVR = assay: Flow cytometry of PVR expression on CT26 cells in vitro; conditions: 20 μM, 24 h
Procedure: Cells in good growth condition were harvested and used to detect the expression of CD47 and PVR. Antibodies anti-human CD47 APC, anti-human PVR PE, anti-mouse-CD47 APC, anti-mouse-PVR APC, and matched isotype controls were purchased from eBioscience, San Diego, CA, USA. The effects of azelnidipine on the expression of CD47 and PVR was determined by incubating CT26 cells with 20 μM of azelnidipine for 24 h, or directly analyzing the tumor cells from tumor tissues of CT26-bearing mice treated with or without azelnidipine.
Figure S3. The effects of Azelnidipine on the expression of CD47 and PVR on CT26 tumor cells. (A and B) CT26 cells were incubated with 20 μM Azelnidipine or vehicle control for 24h, and analyzed the expression of CD47 (A) and PVR (B). The gray shaded histogram represents the isotype, the red line represents the cells treated with vehicle control, and the blue line represents the cells treated with Azelnidipine. (C and D) Tumor cells (CD45-) derived from the tumor tissues of CT26 tumor-bearing mice treated with normal saline (NS) or 5 mg/kg Azelnidipine for twelve days, were analyzed for the expression of CD47 (C) and PVR (D). n.s. means not […]
(1 picture or pasted object on this page, not shown here)

B16-OVA cells = assay: Phagocytosis assay, BMDM co-cultured with GFP+ B16-OVA cells; conditions: 20 μM, 4 h
Procedure: (§1) Bone marrow-derived macrophage (BMDM) cells were isolated from C57BL/6 or BALB/c mice and induced with 20 ng/mL of GM-CSF (Peprotech, Rocky Hill, CT, USA) for 7 days. Meanwhile, the medium was replaced with fresh medium containing the cytokine and the adherent cells were harvested. Phagocytosis assays were performed by a co-culture of the BMDM macrophages with carboxyfluorescein succinimidyl ester-labeled (CFSE^+) or GFP^+ tumor cells at a ratio of 1:4 in a serum-free medium at 37 °C for 4 h, in low-attachment 96-well tissue culture plates (Corning, New York, NY, USA). The cells were harvested and the macrophages were identified by a flow cytometry using anti-F4/80 antibody (eBioscience, San Diego, CA, USA). Then, 7-AAD (eBioscience) was used to exclude the dead cells. The effects of azelnidipine (20 μM) on phagocytosis by BMDM cells were tested, and the anti-CD47 antibody (clone: miap301) were used as the positive control. Phagocytosis rate was determined with the formulation: F4/80^+GFP^+ or F4/80^+CFSE^+ cells/ Total F4/80^+ cells.
(§2) Figure 4 Azelnidipine enhances macrophage mediated phagocytosis of the tumor cells. The effects of the azelnidipine on the phagocytosis of the macrophages were tested by a co-culture of the tumor cells and BMDM cell derived from C57BL/6 or BALB/c mice. […] GFP^+ or CFSE^+ BMDMs were detected by a flow cytometry. […]

MC38 cells = assay: Phagocytosis assay, BMDM co-cultured with GFP+ MC38 cells; conditions: 20 μM, 4 h
Procedure: as §1, §2

Structure (SMILES): CC1=C(C(=O)OC(C)C)C(c2cccc([N+](=O)[O-])c2)C(C(=O)OC2CN(C(c3ccccc3)c3ccccc3)C2)=C(N)N1 (stereo not drawn) [Azelnidipine]
- expression of PVR on CT26 cells (PVR): slightly inhibit
- phagocytosis of B16-OVA cells by BMDM cells (B16-OVA cells): significantly enhance
- phagocytosis of MC38 cells by BMDM cells (MC38 cells): significantly enhance
